Where “and” joins values, the source holds several entries; their conditions need not be identical. Equal values may be shown once.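 1) Cells in 96-well plates. 2) Compound, 48 h, 5 concentrations. 3) Linear interpolation between surrounding doses. 4) Unreached endpoint = highest concentration. Abbreviation: GI50, concentration required for 50% inhibition of growth. At the TGI there is no net growth.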

What all share (experiment): NCI-60 cell line screen, 48 h
In test [1] the test system is MOLT-4 leukemia.
Test [2] deals with LOX IMVI melanoma.
Test [3] deals with SN12C renal.
Test [4] has as its system SNB-19 CNS.
For test [5], the system named is TK-10 renal.
The subject of test [6] is COLO 205 colon.
In test [7] the test system is CAKI-1 renal.

In the case of `C[C@H]1CC[P+](Cc2ccccc2)(c2ccccc2)C1` (some centres not stated), the TGI in test [1], in test [2], in test [3], in test [4], in test [5] and in test [6] was more than 100 µM in each case.

On to `COc1ccccc1NC(=O)C1=C(C)NC(C)=C(C(=O)Nc2ccccc2OC)C1c1ccccc1[N+](=O)[O-]`, for which the TGI in test [1] was found to be 49.5 µM; in test [2], 33.2 µM; in test [3], 37.4 µM; in test [5] it was 59.2 µM; in test [6] it was 31.6 µM.

Consider `Cc1ccc(NC(=O)CCCC(=O)CC(=O)c2ccc(Br)cc2)cc1`, for which the TGI in test [1], in test [2], in test [3], in test [4], in test [7] and in test [5] was more than 100 µM each time. The TGI in test [6] is more than 100 µM.

Consider `O=C(c1ccc(O)cc1O)C1C(c2ccc(O)cc2)OC(c2ccc(O)cc2)C1C(=O)c1ccc(O)cc1O` (configuration not stated), for which the TGI was 44.2 µM in test [2], 45.2 µM in test [4], more than 100 µM in test [7] and 49.8 µM in test [5].

For the compound `Cc1ccc(NC(=O)CCc2nc(=S)[nH][nH]2)cc1`, the TGI in test [1], in test [3], in test [4], in test [7], in test [5] and in test [6] was more than 100 µM each time.

`Nc1nncc2c1c(Br)cn2C1OC(CO)C(O)C1O` (configuration not stated): the TGI in test [1], in test [2], in test [3], in test [4], in test [7] and in test [5] was more than 100 µM throughout. In test [6], this compound came in with a TGI of more than 100 µM.

In the case of `CC(=O)C1CCN(c2ccccc2)C1` (configuration not stated), the TGI in test [1], in test [3], in test [4], in test [7] and in test [5] was more than 100 µM in each case.

For `COc1cc(C2c3cc4c(cc3[C@@H](NCCN(C)C)C3COC(=O)[C@H]23)OCO4)cc(OC)c1O` (some centres not stated), the GI50 is 0.0366 µM and 0.119 µM in test [2]; 0.0256 µM and 0.084 µM in test [3]; 0.306 µM and 0.652 µM in test [7]. Moreover, the TGI is 0.69 µM and 1.29 µM in test [2]; 0.406 µM and 0.982 µM in test [3]; 5.18 µM and 9.62 µM in test [4]; 3.46 µM and 4.21 µM in test [7]; 3.58 µM and 5.2 µM in test [5].

Regarding `O=C1c2ccccc2C(=O)c2cc3c(cc21)CS(=O)C3`, the TGI in test [1] was more than 100 µM; in test [2] it was more than 100 µM; in test [3] it was 43.3 µM; in test [4] it was more than 100 µM; in test [7], more than 100 µM; in test [5], more than 100 µM. This compound also showed a TGI in test [6] of more than 100 µM.

Consider `CC(C)(C)c1cc(CCC(=O)Nc2ccc(Cl)cc2)[nH]c(=S)n1`, for which the TGI in test [1], in test [2], in test [3], in test [4], in test [7] and in test [5] was more than 100 µM each time. The compound also yielded a TGI in test [6] of more than 100 µM.

On to `CCCNC(=O)Nc1c([N+](=O)[O-])cc(C(F)(F)F)cc1[N+](=O)[O-]`, for which the TGI in test [1], in test [2], in test [4], in test [7] and in test [5] was more than 100 µM throughout.

With `O=C(O/N=C1\CCCC\C1=C/c1ccccc1)c1ccc([N+](=O)[O-])cc1`, the TGI in test [1], in test [2], in test [3], in test [7] and in test [6] was more than 100 µM throughout.

For the compound `COC1C2C[C@@H](O)CCC2C(C(=O)OCCl)C[C@H]1O` (some centres not stated), the TGI in test [1], in test [3], in test [4], in test [7], in test [5] and in test [6] was more than 100 µM each time.

Regarding `O=C1C(c2ccccc2)=C(c2ccccc2)C(c2ccc(Cc3ccc(C4=C(c5ccccc5)C(=O)C(c5ccccc5)=C4c4ccccc4)cc3)cc2)=C1c1ccccc1`, the TGI in test [1], in test [2], in test [4], in test [7], in test [5] and in test [6] was more than 100 µM each time.

As for `O=S1(=O)N2CN3CN(C2)CN1C3`, the TGI was 864 µM in test [1]; > 79.1 µM and 67.5 µM in test [2]; 158 µM in test [3]; 856 µM in test [4]; 571 µM in test [7]; 692 µM in test [5]. The TGI in test [6] is > 31.6 µM and 73.8 µM. For the same compound, the GI50 in test [2] was 25.2 µM.

As for `Nc1ccc2n[se]nc2c1`, the TGI in test [1], in test [2], in test [3], in test [4], in test [7] and in test [5] was more than 100 µM throughout.

Take `COC(=O)CCSC(=O)Nc1ccc(N=Nc2ccccc2)cc1`: the TGI in test [1], in test [2], in test [3], in test [4], in test [7] and in test [5] was more than 100 µM throughout. For the same compound, the TGI in test [6] was determined as 47.7 µM.

Regarding `NC(=O)c1ccc2c(c1)-c1nc-2nc2[n-]c(nc3nc(nc4[n-]c(n1)c1ccc(C(N)=O)cc41)-c1ccc(C(N)=O)cc1-3)c1ccc(C(N)=O)cc21.[Co+2]`, the GI50 in test [1] is more than 50 µM; in test [2], 16.1 µM; in test [3] it was more than 50 µM; in test [4], more than 50 µM; in test [7], more than 50 µM; in test [5], more than 50 µM. Moreover, the GI50 in test [6] is more than 50 µM. Further, the TGI in test [1], in test [2], in test [3], in test [4], in test [7] and in test [5] was more than 50 µM each time. Also, the TGI in test [6] is more than 50 µM.

For `COC(=O)C(=O)Cc1nc2ccccc2s1`, the TGI in test [1], in test [2], in test [3], in test [4], in test [7] and in test [5] was more than 100 µM each time. Also, the TGI in test [6] was more than 100 µM.

Regarding `NC1NC=NC2C1N=CN2C1OC(CO)C2[O][Sn][O]C21` (configuration not stated), the GI50 in test [1] is more than 100 µM; in test [2], more than 100 µM; in test [3], 1.98 µM; in test [4], more than 100 µM; in test [7], more than 100 µM; in test [5] it was more than 100 µM. The GI50 in test [6] was more than 100 µM. The TGI in test [1], in test [2], in test [3], in test [4], in test [7] and in test [5] was more than 100 µM in each case. Besides, the TGI in test [6] was more than 100 µM.

On to `CCOC(=O)C(C)(NC(=O)c1ccc(NCc2ccc3nc(NC(=O)c4ccccc4)nc(NC(=O)c4ccccc4)c3c2)cc1)C(=O)OCC`, for which the TGI in test [1] is more than 100 µM; in test [2], 34.1 µM; in test [3], 29.8 µM; in test [7] it was 21.9 µM; in test [5], 48.9 µM; in test [6] it was more than 100 µM.

For `COc1cc[c]([Sn]([c]2ccc(OC)cc2)([c]2ccc(OC)cc2)[c]2ccc(OC)cc2)cc1`, the GI50 in test [1] is 10.7 µM; in test [2], 13.6 µM; in test [3] it was more than 100 µM; in test [4], 28.5 µM; in test [7] it was 10.9 µM; in test [5], 17.9 µM. Moreover, in test [6], the GI50 is 18.3 µM. Further, the TGI in test [1] was 39 µM; in test [2], 29.4 µM; in test [3] it was more than 100 µM; in test [4], more than 100 µM; in test [7], 69.2 µM; in test [5], 51.1 µM. For the same compound, the TGI in test [6] worked out at 41.8 µM.

Turning to `CC(C)(CN1C(=O)C(Cl)=C(Cl)C1=O)CN1C(=O)C(Cl)=C(Cl)C1=O`, the TGI in test [1] turned out to be 30.1 µM; in test [2], 33.5 µM; in test [3], 29.4 µM; in test [4], 55 µM; in test [7] it was 15.9 µM; in test [5], 22.2 µM. In test [6], this compound displayed a TGI of 8.66 µM.

With `Cc1nc(N)nc(N)c1CCCCc1ccc(N)cc1`, the TGI in test [1] stood at 35.2 µM; in test [2] it was 14.8 µM; in test [3] it was 16.9 µM; in test [4] it was 20.4 µM; in test [7], 39.5 µM; in test [5], 28.8 µM. The same compound registered a TGI in test [6] of 28 µM.

As for `CN(C)CCNC(=O)c1cccc2c1nc(-c1ccc(F)cc1)c1ccccc12`, the TGI in test [1] stood at 1.77 µM; in test [2] it was 5.36 µM; in test [3] it was 16 µM; in test [4] it was 20.2 µM; in test [7], 16.8 µM; in test [5] it was 16.6 µM. In addition, the TGI in test [6] came to 14.3 µM.

In the case of `N#CCCn1[nH]c(=O)c(Cl)c(Cl)c1=O`, the TGI was found to be 37.4 µM in test [1]; 28.3 µM in test [2]; 32.5 µM in test [3]; 29 µM in test [4]; 68.4 µM in test [5]; 57.3 µM in test [6].

The values are drawn from PubChem BioAssay (NCI).
